Experimental data taken from ChEMBL document CHEMBL1201862, “PubChem BioAssay data set” (2004).
Calls of active or inactive are those of the source.

Tests used:
Aminopeptidase N = biological target: T1, Aminopeptidase N (Plasmodium falciparum FcB1/Columbia, UniProt O96935); test: P. falciparum M1AAP inhibitors, biochemical, fluorogenic H-Leu-NHMec substrate, 1536-well (AID 1445); design: species or system Plasmodium falciparum 3D7, 3D7
T1 sequence (O96935 whole entry): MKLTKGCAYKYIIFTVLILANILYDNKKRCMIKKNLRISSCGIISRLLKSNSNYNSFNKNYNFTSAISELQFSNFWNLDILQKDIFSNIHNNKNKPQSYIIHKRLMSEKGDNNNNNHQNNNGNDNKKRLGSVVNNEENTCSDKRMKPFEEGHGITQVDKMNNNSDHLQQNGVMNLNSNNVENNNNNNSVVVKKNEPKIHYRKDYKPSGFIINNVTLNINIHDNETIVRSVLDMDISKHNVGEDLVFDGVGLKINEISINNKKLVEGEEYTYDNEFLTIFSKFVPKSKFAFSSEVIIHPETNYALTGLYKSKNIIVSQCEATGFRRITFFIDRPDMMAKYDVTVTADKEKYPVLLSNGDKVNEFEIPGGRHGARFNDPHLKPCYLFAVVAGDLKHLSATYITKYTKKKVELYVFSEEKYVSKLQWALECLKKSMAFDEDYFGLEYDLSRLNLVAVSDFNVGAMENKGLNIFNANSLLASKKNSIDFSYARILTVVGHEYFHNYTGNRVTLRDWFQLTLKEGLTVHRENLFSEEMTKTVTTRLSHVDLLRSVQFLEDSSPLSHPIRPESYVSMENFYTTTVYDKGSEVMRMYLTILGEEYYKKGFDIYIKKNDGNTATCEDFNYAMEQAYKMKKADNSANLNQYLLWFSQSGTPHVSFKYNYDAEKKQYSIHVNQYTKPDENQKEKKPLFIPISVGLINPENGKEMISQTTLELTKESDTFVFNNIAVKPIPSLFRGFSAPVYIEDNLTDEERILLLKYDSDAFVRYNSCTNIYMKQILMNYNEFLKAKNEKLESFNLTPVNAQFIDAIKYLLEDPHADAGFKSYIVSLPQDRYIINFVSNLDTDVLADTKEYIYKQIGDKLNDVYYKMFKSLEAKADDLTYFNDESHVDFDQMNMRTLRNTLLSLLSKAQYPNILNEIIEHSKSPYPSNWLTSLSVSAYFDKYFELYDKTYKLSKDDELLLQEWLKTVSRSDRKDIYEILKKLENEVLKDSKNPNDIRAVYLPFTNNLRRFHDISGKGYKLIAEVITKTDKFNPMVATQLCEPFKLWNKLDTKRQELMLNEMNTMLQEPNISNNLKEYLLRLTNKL

Leucine aminopeptidase = biological target: T2, Leucine aminopeptidase (Plasmodium falciparum 3D7, UniProt Q8IL11); test: P. falciparum M17LAP inhibitors, primary screen, biochemical, fluorogenic H-Leu-NHMec substrate, 1536-well (AID 1619); assay type: functional
T2 sequence (Q8IL11 whole entry): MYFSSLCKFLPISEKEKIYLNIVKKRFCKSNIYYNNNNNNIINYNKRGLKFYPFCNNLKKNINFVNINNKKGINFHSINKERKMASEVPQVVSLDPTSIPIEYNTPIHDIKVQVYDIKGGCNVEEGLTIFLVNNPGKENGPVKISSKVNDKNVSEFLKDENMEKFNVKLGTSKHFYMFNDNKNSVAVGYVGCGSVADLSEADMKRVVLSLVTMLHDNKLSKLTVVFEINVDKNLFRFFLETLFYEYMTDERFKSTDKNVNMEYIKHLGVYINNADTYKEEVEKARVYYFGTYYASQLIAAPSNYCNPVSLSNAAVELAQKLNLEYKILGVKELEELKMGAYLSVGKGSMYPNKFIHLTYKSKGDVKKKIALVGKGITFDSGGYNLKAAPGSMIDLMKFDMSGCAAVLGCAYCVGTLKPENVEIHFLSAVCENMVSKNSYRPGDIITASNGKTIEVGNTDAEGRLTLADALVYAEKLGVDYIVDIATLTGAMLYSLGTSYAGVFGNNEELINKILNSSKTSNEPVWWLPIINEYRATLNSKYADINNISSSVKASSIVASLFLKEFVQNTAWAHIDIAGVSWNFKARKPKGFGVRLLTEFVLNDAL

[1] = Artemis endonuclease inhibitor potency, dose response, biochemical, fluorescence intensity (AID 720701); assay type: functional;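 note: Artemis endonuclease enzyme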

IC50 (Aminopeptidase N): 10.4 µM (active)
IC50 (Leucine aminopeptidase): 43.4 µM (active)
IC50 [1]: 1.4 µM (active)
SMILES: O=C(Cc1ccsc1-c1ccccc1)NO
